# Patent publication US9955691B2, “Macrocyclic picolinamides as fungicides” (DOW AGROSCIENCES LLC, priority 2014, dated 2018)
# Like-named read-outs stand apart in the source and are kept apart here.
# Tests used:
# [1] = test system: Puccinia triticina; assay: Fungicidal activity: Wheat Brown Rust (PUCCRT); type: in vivo; conditions: for pest or weed control at 100 µg/mL: High Volume (100 ppm); for pest or weed control at 121.5 g/ha: Low Volume (121.5 g/H)
# In short: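 Percent control of brown rust was derived from 0-100% severity on treated versus untreated first leaves. Yuma wheat seedlings were spray-treated to run-off (acetone/water, Triton X-100) and inoculated with P. triticina spores before or after treatment, then held overnight in dark dew at 22° C and moved to a 24° C greenhouse.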
# [2] = test system: Mycosphaerella graminicola; Anamorph: Septoria tritici; assay: Fungicidal activity: Leaf Blotch of Wheat (SEPTTR); type: in vivo; conditions: Zymoseptoria tritici, wheat leaf blotch; for pest or weed control at 100 µg/mL: High Volume (100 ppm); for pest or weed control at 121.5 g/ha: Low Volume (121.5 g/H)
# In short: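 Compounds were dissolved in acetone, diluted with nine volumes of water containing 110 ppm Triton X-100, and sprayed to run-off on first-leaf Yuma wheat seedlings inoculated with Septoria tritici spores before or after treatment. Plants were held in a dew chamber, then a 20° C. greenhouse. Percent control was derived from disease severity relative to untreated plants.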
# [3] = 24 h, 1 Day Protectant, read-out: PUCCRT 1 DP disease control
# [4] = 72 h, 3 Day Curative, read-out: PUCCRT 3 DC disease control
# [5] = 24 h, 1 Day Protectant, read-out: SEPTTR 1 DP disease control
# [6] = 72 h, 3 Day Curative, read-out: SEPTTR 3 DC disease control
melting point [°C],Compound,"pest or weed control at 100 µg/mL [1, 3] [%]","pest or weed control at 100 µg/mL [1, 4] [%]","pest or weed control at 100 µg/mL [2, 5] [%]","pest or weed control at 100 µg/mL [2, 6] [%]","pest or weed control at 121.5 g/ha [1, 3] [%]","pest or weed control at 121.5 g/ha [1, 4] [%]","pest or weed control at 121.5 g/ha [2, 5] [%]","pest or weed control at 121.5 g/ha [2, 6] [%]"
64 to 72,COc1ccnc(C(=O)N[C@H]2COC[C@H](c3ccccc3)[C@@H](c3ccccc3)[C@H](C)OC2=O)c1O [compound 116],> 70,> 70,> 70,< 70,,,,
63 to 69,COc1ccnc(C(=O)N[C@H]2COC[C@H](Cc3ccccc3)[C@@H](Cc3ccc(OC(F)(F)F)cc3)[C@H](C)OC2=O)c1O [compound 131],> 70,> 70,> 70,> 70,,,,
56 to 60,COc1ccnc(C(=O)N[C@H]2COC[C@H](Cc3ccc(Cl)cc3)[C@@H](C3CCCC3)[C@H](C)OC2=O)c1OCOC(C)=O [compound 88],,,,,> 70,< 70,> 70,< 70
